Like-named read-outs stand apart in the source and are kept apart here.
How the values were obtained:
[1] = cited from earlier work; for predicted t90 for 10% conversion to (E)-endoxifen: solid state
[2] = Placebo controlled, dose escalation pharmacokinetic study of oral (Z)-Endoxifen capsules (serum endoxifen; incl. accumulation ratios and dose linearity); format: in vivo, human
Description: An objective of the study was to assess the safety and tolerability of oral (Z)-Endoxifen when administered […] orally as a capsule to healthy female volunteers. A secondary objective was to assess the pharmacokinetics of multiple doses of oral (Z)-Endoxifen in the subjects.
Generally, healthy female volunteers aged ≥18 years and ≤65 years were enrolled. 24 participants were enrolled in 3 cohorts and will be administered study drug orally. Three dose levels of orally administered (Z)-Endoxifen were investigated in 3 cohorts. In each cohort participants were randomized to receive an oral (Z)-Endoxifen or placebo in a blinded fashion. Enteric-resistant capsules used in the study were designed as delayed release capsules to resist rupture for at least 30 minutes, but typically, for about 2 hours, under gastric conditions and then open fully in intestinal fluid (DRCaps; Capsugel, a Lonza Company, USA). Enteric-resistant (Swedish Orange size Zero (0); Capsugel, USA) DRCaps capsules manually filled with 1, 2 or 4 mg of (Z)-endoxifen neat in compliance with GMP requirements were used. Placebo capsules contained microcrystalline cellulose an inert common capsule and tablet excipient.
Each cohort enrolled 8 participants, with 6 participants receiving (Z)-Endoxifen 1 mg capsules orally at 1 mg (Cohort 1), 2 mg (Cohort 2) or 4 mg (Cohort 3) doses and 2 participants receiving matching placebo capsules. In Cohort 1 (Dose Level=1 mg) two participants (sentinels) were dosed 24 hours prior to the remaining participants. One sentinel was dosed with (Z)-Endoxifen and the other with placebo. The remaining six participants in Cohort 1 were dosed as no safety concerns were identified in the sentinel participants. The non-sentinel participants in Cohort 1 were admitted to the clinical research facility at least one day later than the sentinels. There were no sentinels in Cohorts 2 and 3.
Participant engagement in this study was for a period of 56 days. These included a 28 day screening period, and a 7 day post treatment period for Pharmacokinetic (PK) sampling. There were two confinement periods, one at the beginning and one at the end of the dosing periods. Participants were confined to the clinical facility on Days-1 through to Day 2 and Days 21 and 22. If participants were to experience any clinically significant adverse events during the study, they would have been required to remain in the clinical facility for further observation at the discretion of the Principal Investigator (PI).
Healthy female volunteers were screened within 28 days prior to commencement of dosing. Participants were admitted to the clinical facility on Day-1 for up to 3 days. The first dose of (Z)-Endoxifen or placebo capsules was administered on Day 1. Following completion of all safety assessments and sampling for PK analyses, participants were discharged from the clinical facility on Day 2. The first dose on Day 1 was followed by a 6-day treatment free period (Days 2-7). Each participant returned to the clinical facility for PK blood draws and safety assessments during the treatment free period on study Days 4 and 6. On Day 8 participants commenced daily administration of (Z)-Endoxifen capsules or placebo capsules for 14 consecutive days (Days 8-21). Participants were supplied with study drug capsules and asked to self administer daily. Participants visited the clinical facility on Days 11, 14 and 17, prior to dose administration, for PK blood draws and safety assessments. On the morning of Day 21 each participant returned to the clinical facility prior to dose administration and were confined to the facility until Day 22 to allow for the collection of PK blood draws and safety assessments. The Day 21 dose was the last administration of study drug. Participants were discharged from the clinical facility on Day 22 and returned for PK blood draws and safety assessments on study Days 24, 26, and 28. […]

[3] = cited from earlier work

CC/C(=C(\c1ccc(O)cc1)c1ccc(OCCNC)cc1)c1ccccc1.Cl [(Z)-endoxifen HCl]
t90 ([1]; aqueous medium, 45° C.): 9 days
predicted t90 for 10% conversion to (E)-endoxifen ([1]; 25° C./60% RH): 53 months
predicted t90 for 10% conversion to (E)-endoxifen ([1]; 40° C./75% RH): 4.3 months

CC/C(=C(\c1ccc(O)cc1)c1ccc(OCCNC)cc1)c1ccccc1 [Endoxifen]
dose linearity β Estimate ([2]; AUC24 hr (log), Day 1): 0.873
dose linearity β Estimate ([2]; AUC24 hr (log), Day 21): 1.008
dose linearity β Estimate ([2]; Cmax (log), Day 1): 0.808
dose linearity β Estimate ([2]; Cmax (log), Day 21): 1.055

CC/C(=C(\c1ccccc1)c1ccc(OCCN(C)C)cc1)c1ccccc1 [tamoxifen, (Z)-2-[4-(1,2-diphenyl-1-butenyl)phenoxy]-N,N-dimethylethanamine]
Terminal elimination half life ([3]; in vivo): 120 to 170 h
peak concentration time ([3]; post-dose): approximately 5 hours
